# Biological target: T1, Kv3.1 (Homo sapiens, UniProt P48547)
# T1 construct: expressed in transfected cells
# T1 sequence (P48547 1-511): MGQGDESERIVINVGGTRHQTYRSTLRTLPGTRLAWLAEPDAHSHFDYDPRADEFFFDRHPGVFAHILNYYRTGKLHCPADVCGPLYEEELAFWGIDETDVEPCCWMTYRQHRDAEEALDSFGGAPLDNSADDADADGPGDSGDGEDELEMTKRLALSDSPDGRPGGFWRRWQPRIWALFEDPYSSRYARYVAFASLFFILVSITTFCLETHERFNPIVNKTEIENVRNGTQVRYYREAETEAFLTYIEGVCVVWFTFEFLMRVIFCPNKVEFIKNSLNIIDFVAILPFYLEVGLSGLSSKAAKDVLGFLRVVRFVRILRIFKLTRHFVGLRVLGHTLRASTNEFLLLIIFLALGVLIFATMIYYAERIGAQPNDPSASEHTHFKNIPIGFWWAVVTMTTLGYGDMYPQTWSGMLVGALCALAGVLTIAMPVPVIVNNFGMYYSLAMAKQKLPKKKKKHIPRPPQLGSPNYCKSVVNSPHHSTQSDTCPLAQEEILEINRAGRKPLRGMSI
# Assay: Kv3.1 automated patch clamp (Qube) cellular electrophysiology assay
# Type: cell-based
# From the text: In vitro, high-throughput cellular electrophysiology was employed to detect voltage-dependence of compounds in single concentration screening and IC50 determination for library and medicinal chemistry profiling compounds in 384 well plates.
# HEK-293 cell lines stably expressing coding DNA for Kv3.1, 3.2, 3.3, and 3.4 were validated on an automated patch clamp (APC) platform, Qube from Sophion/Denmark. Cell cultures were maintained in DMEM cell growth media containing FBS and appropriate antibiotics at 37° C., 5% CO2 for a maximum of 20 passages. Intra- and extracellular (w. glucose) HEPES buffers containing various monovalent and divalent cations were adjusted to pH 7.2 and 7.4 respectively. Cells were harvested at 75% confluency and resuspended in extracellular buffer and added to wells. Negative pressure was applied to establish whole cell recording by APC.
# Currents through activated channels were measured directly by APC by employing depolarization voltage steps. Baseline currents were established for the voltage-dependence protocols using a −80 mV holding potential and multiple test pulses at +10 mV or by 10 mV steps from −80 mV to +40 mV, respectively. Test compounds were added after baseline recordings followed by a 10 min incubation, and voltage-dependency protocol recordings. Data was corrected for baseline and leak currents (well based) and normalized for % potentiation (plate based). Two previously reported Kv3 positive modulators of varying potencies were used for run to run and plate to plate quality controls. A non-selective and potent positive modulator was used as a positive control. Percent potentiation was analyzed at −20 mV of the voltage-dependency protocol and voltage shift in channel activation was analyzed using the voltage step protocol from −80 mV to +40 mV. Selectivity was assessed against Kv3.2, Kv3.3, and Kv3.4 overexpressing cell lines using similar methods.
row,Structure (SMILES),EC50 [µM]
1,"CC(C)c1cc(Oc2ccc(-n3c(=O)[nH]c4cncnc43)cn2)ccc1C#N [Example 15, 2-isopropyl-4-[[5-(8-oxo-7H-purin-9-yl)-2-pyridyl]oxy]benzonitrile]",3.5
2,"CC(C)(C)c1cc(C#N)ccc1Oc1ccc(-n2c(=O)[nH]c3cccnc32)cn1 [Example 4, 3-tert-butyl-4-[[5-(2-oxo-1H-imidazo[4,5-b]pyridin-3-yl)-2-pyridyl]oxy]benzonitrile]",2
3,"CC(C)Oc1cc(Oc2ccc(-n3c(=O)[nH]c4ccccc43)cn2)ccc1C#N [Example 22, 2-isopropoxy-4-[[5-(2-oxo-3H-benzimidazol-1-yl)-2-pyridyl]oxy]benzonitrile]",20.7
4,"CC(C)(C)c1cc(C#N)ccc1Oc1ccc(-n2c(=O)[nH]c3cccnc32)cc1F [Example 51, 3-tert-butyl-4-[2-fluoro-4-(2-oxo-1H-imidazo[4,5-b]pyridin-3-yl)phenoxy]benzonitrile]",12.7
5,"O=c1[nH]c2cncnc2n1-c1ccc(Oc2cccc3c2C2(CC2)CO3)nc1 [Example 2, 9-(6-spiro[2H-benzofuran-3,1′-cyclopropane]-4-yloxy-3-pyridyl)-7H-purin-8-one]",0.8
6,"Cc1cc(-n2c(=O)[nH]c3ccccc32)cnc1Oc1cccc2c1C1(CC1)CO2 [Example 11, 3-(5-methyl-6-spiro[2H-benzofuran-3,1′-cyclopropane]-4-yloxy-3-pyridyl)-1H-benzimidazol-2-one]",2.8
7,"COc1cc(Oc2ccc(-n3c(=O)[nH]c4cccnc43)cn2)cnc1C [Example 41, 3-[6-[(5-methoxy-6-methyl-3-pyridyl)oxy]-3-pyridyl]-1H-imidazo[4,5-b]pyridin-2-one]",16.4
8,"COc1cc(Oc2ccc(-n3c(=O)[nH]c4cnccc43)cn2)ccc1C [Example 32, 1-[6-(3-methoxy-4-methyl-phenoxy)-3-pyridyl]-3H-imidazo[4,5-c]pyridin-2-one]",4.4
9,"COc1cc(Oc2ncc(-n3c(=O)[nH]c4cnccc43)cc2C)ccc1C [Example 45, 1-[5-methyl-6-(3-methoxy-4-methyl-phenoxy)-3-pyridyl]-3H-imidazo[4,5-c]pyridin-2-one]",3.1
10,"COc1cc(Oc2ncc(-n3c(=O)[nH]c4cnccc43)cc2F)ccc1C [Example 44, 1-[5-fluoro-6-(3-methoxy-4-methyl-phenoxy)-3-pyridyl]-3H-imidazo[4,5-c]pyridin-2-one]",2.9
11,"CC(C)(C)c1cc(C#N)ccc1Oc1ccc(-n2c(=O)[nH]c3ccccc32)cn1 [Example 20, 3-tert-butyl-4-[[5-(2-oxo-3H-benzimidazol-1-yl)-2-pyridyl]oxy]benzonitrile]",12.2
12,"O=c1[nH]c2ccccc2n1-c1ccc(Oc2cccc3c2C2(CC2)CO3)c(F)c1 [Example 23, 3-(3-fluoro-4-spiro[2H-benzofuran-3,1′-cyclopropane]-4-yloxy-phenyl)-1H-benzimidazol-2-one]",3.5
13,"CC(C)c1cc(Oc2ccc(-n3c(=O)[nH]c4ccccc43)cn2)ccc1C#N [Example 19, 2-isopropyl-4-[[5-(2-oxo-3H-benzimidazol-1-yl)-2-pyridyl]oxy]benzonitrile]",15.6
14,"O=c1[nH]c2cnccc2n1-c1ccc(Oc2cccc3c2C2(CC2)CO3)nc1 [Example 6, 1-(6-spiro[2H-benzofuran-3,1′-cyclopropane]-4-yloxy-3-pyridyl)-3H-imidazo[4,5-c]pyridin-2-one]",2
15,"COc1cc(Oc2ccc(-n3c(=O)[nH]c4ncccc43)cn2)ccc1C [Example 30, 1-[6-(3-methoxy-4-methyl-phenoxy)-3-pyridyl]-3H-imidazo[4,5-b]pyridin-2-one]",19.2
16,"O=c1[nH]c2ccccc2n1-c1ccc(Oc2cccc3c2C2(CC2)CO3)nc1 [Example 10, 3-(6-spiro[2H-benzofuran-3,1′-cyclopropane]-4-yloxy-3-pyridyl)-1H-benzimidazol-2-one]",2.5
17,"COc1cc(Oc2ccc(-n3c(=O)[nH]c4cncnc43)cn2)ccc1C [Example 43, 9-[6-(3-methoxy-4-methyl-phenoxy)-3-pyridyl]-7H-purin-8-one]",7.4
18,"CC(C)c1cc(Oc2ccc(-n3c(=O)[nH]c4cncnc43)cc2F)ccc1C#N [Example 18, 4-[2-fluoro-4-(8-oxo-7H-purin-9-yl)phenoxy]-2-isopropyl-benzonitrile]",18.8
19,"CC(C)c1cc(Oc2ccc(-n3c(=O)[nH]c4cnccc43)cn2)ccc1C#N [Example 16, 2-isopropyl-4-[[5-(2-oxo-3H-imidazo[4,5-c]pyridin-1-yl)-2-pyridyl]oxy]benzonitrile]",5.9

# Reference: US20230124087A1, “KV3 ENHANCERS FOR THE TREATMENT OF COGNITIVE DISORDERS” (Hoffmann-La Roche Inc., priority 2020, published 2023)
